Experimental data published in ChEMBL document CHEMBL2440076, “New triarylpyrazoles as broad-spectrum anticancer agents: design, synthesis, and biological evaluation” (Eur J Med Chem, 2013).

Legend:
Format in all cases: functional
[1] = tested on: SF-295; experiment: Growth inhibition of human SF295 cells assessed as cell growth at 10^-7 M after 48 hrs by sulforhodamine B assay; details: SF-295, 48 h, read-out: Activity
[2] = Growth inhibition of human HCC2998 cells assessed as cell growth at 10^-7 M after 48 hrs by sulforhodamine B assay; details: HCC 2998, 48 h, read-out: Activity
[3] = tested on: NCI-H522; experiment: Growth inhibition of human NCI-H522 cells assessed as cell growth at 10^-7 M after 48 hrs by sulforhodamine B assay; details: NCI-H522, 48 h, read-out: Activity
[4] = tested on: MDA-MB-468; experiment: Growth inhibition of human MDA-MB-468 cells assessed as cell growth at 10^-4 M after 48 hrs by sulforhodamine B assay; details: MDA-MB-468, 48 h, read-out: Activity
[5] = tested on: A498; experiment: Growth inhibition of human A498 cells assessed as cell growth at 10^-4 M after 48 hrs by sulforhodamine B assay; details: A498, 48 h, read-out: Activity
[6] = tested on: SK-OV-3; experiment: Growth inhibition of human SKOV3 cells assessed as cell growth at 10^-4 M after 48 hrs by sulforhodamine B assay; details: SK-OV-3, 48 h, read-out: Activity
[7] = tested on: KM12; experiment: Growth inhibition of human KM12 cells assessed as cell growth at 10^-4 M after 48 hrs by sulforhodamine B assay; details: KM12, 48 h, read-out: Activity
[8] = tested on: HT-29; experiment: Growth inhibition of human HT-29 cells assessed as cell growth at 10^-4 M after 48 hrs by sulforhodamine B assay; details: HT-29, 48 h, read-out: Activity
[9] = tested on: OVCAR-5; experiment: Growth inhibition of human OVCAR5 cells assessed as cell growth at 10^-8 M after 48 hrs by sulforhodamine B assay; details: OVCAR-5, 48 h, read-out: Activity
[10] = tested on: IGROV-1; experiment: Growth inhibition of human IGROV1 cells assessed as cell growth at 10^-8 M after 48 hrs by sulforhodamine B assay; details: IGROV-1, 48 h, read-out: Activity
[11] = tested on: UACC-257; experiment: Growth inhibition of human UACC257 cells assessed as cell growth at 10^-8 M after 48 hrs by sulforhodamine B assay; details: UACC-257, 48 h, read-out: Activity
[12] = tested on: SK-MEL-2; experiment: Growth inhibition of human SK-MEL-2 cells assessed as cell growth at 10^-8 M after 48 hrs by sulforhodamine B assay; details: SK-MEL-2, 48 h, read-out: Activity
[13] = tested on: HCT-116; experiment: Growth inhibition of human HCT116 cells assessed as cell growth at 10^-8 M after 48 hrs by sulforhodamine B assay; details: HCT-116, 48 h, read-out: Activity
[14] = tested on: NCI-H322M; experiment: Growth inhibition of human NCI-H322M cells assessed as cell growth at 10^-4 M after 48 hrs by sulforhodamine B assay; details: read-out: Activity
[15] = tested on: MDA-MB-468; experiment: Growth inhibition of human MDA-MB-468 cells assessed as cell growth at 10^-5 M after 48 hrs by sulforhodamine B assay; details: MDA-MB-468, 48 h, read-out: Activity
[16] = tested on: PC-3; experiment: Growth inhibition of human PC3 cells assessed as cell growth at 10^-5 M after 48 hrs by sulforhodamine B assay; details: PC-3, 48 h, read-out: Activity
[17] = tested on: OVCAR-3; experiment: Growth inhibition of human OVCAR3 cells assessed as cell growth at 10^-5 M after 48 hrs by sulforhodamine B assay; details: OVCAR-3, 48 h, read-out: Activity
[18] = tested on: UACC-62; experiment: Growth inhibition of human UACC62 cells assessed as cell growth at 10^-5 M after 48 hrs by sulforhodamine B assay; details: UACC-62, 48 h, read-out: Activity
[19] = tested on: LOX IMVI; experiment: Growth inhibition of human LOXIMVI cells assessed as cell growth at 10^-5 M after 48 hrs by sulforhodamine B assay; details: read-out: Activity
[20] = tested on: TK-10; experiment: Growth inhibition of human TK10 cells assessed as cell growth at 10^-6 M after 48 hrs by sulforhodamine B assay; details: TK-10, 48 h, read-out: Activity
[21] = tested on: M14; experiment: Growth inhibition of human M14 cells assessed as cell growth at 10^-6 M after 48 hrs by sulforhodamine B assay; details: M14, 48 h, read-out: Activity
[22] = tested on: SF-295; experiment: Growth inhibition of human SF295 cells assessed as cell growth at 10^-6 M after 48 hrs by sulforhodamine B assay; details: SF-295, 48 h, read-out: Activity
[23] = tested on: KM12; experiment: Growth inhibition of human KM12 cells assessed as cell growth at 10^-6 M after 48 hrs by sulforhodamine B assay; details: KM12, 48 h, read-out: Activity
[24] = tested on: HCT-15; experiment: Growth inhibition of human HCT15 cells assessed as cell growth at 10^-6 M after 48 hrs by sulforhodamine B assay; details: HCT-15, 48 h, read-out: Activity
[25] = tested on: HOP-92; experiment: Growth inhibition of human HOP92 cells assessed as cell growth at 10^-6 M after 48 hrs by sulforhodamine B assay; details: HOP-92, 48 h, read-out: Activity
[26] = tested on: HL-60(TB); experiment: Growth inhibition of human HL-60(TB) cells assessed as cell growth at 10^-6 M after 48 hrs by sulforhodamine B assay; details: HL-60, 48 h, read-out: Activity
[27] = tested on: T47D; experiment: Growth inhibition of human T47D cells assessed as cell growth at 10^-7 M after 48 hrs by sulforhodamine B assay; details: read-out: Activity
[28] = tested on: OVCAR-3; experiment: Growth inhibition of human OVCAR3 cells assessed as cell growth at 10^-7 M after 48 hrs by sulforhodamine B assay; details: OVCAR-3, 48 h, read-out: Activity
[29] = tested on: MDA-MB-435; experiment: Growth inhibition of human MDA-MB-435 cells assessed as cell growth at 3X10'-7 M after 48 hrs by sulforhodamine B assay; details: MDA-MB-435, 48 h, read-out: Activity
[30] = tested on: A549; experiment: Growth inhibition of human A549/ATCC cells assessed as cell growth at 3X10'-8 M after 48 hrs by sulforhodamine B assay; details: A549, 48 h, read-out: Activity
[31] = Growth inhibition of human Hs 578T cells assessed as cell growth at 3X10'-9 M after 48 hrs by sulforhodamine B assay; details: read-out: Activity
[32] = tested on: OVCAR-3; experiment: Growth inhibition of human OVCAR3 cells assessed as cell growth at 3X10'-9 M after 48 hrs by sulforhodamine B assay; details: OVCAR-3, 48 h, read-out: Activity
[33] = tested on: MCF7; experiment: Growth inhibition of human MCF7 cells assessed as cell growth at 3X10'-6 M after 48 hrs by sulforhodamine B assay; details: MCF7, 48 h, read-out: Activity
[34] = tested on: SK-MEL-28; experiment: Growth inhibition of human SK-MEL-28 cells assessed as cell growth at 3X10'-9 M after 48 hrs by sulforhodamine B assay; details: SK-MEL-28, 48 h, read-out: Activity
[35] = tested on: NCI-H226; experiment: Growth inhibition of human NCI-H226 cells assessed as cell growth at 3X10'-9 M after 48 hrs by sulforhodamine B assay; details: NCI-H226, 48 h, read-out: Activity
[36] = tested on: A549; experiment: Growth inhibition of human A549/ATCC cells assessed as cell growth at 3X10'-6 M after 48 hrs by sulforhodamine B assay; details: A549, 48 h, read-out: Activity
[37] = Growth inhibition of human Hs 578T cells assessed as cell growth at 3X10'-7 M after 48 hrs by sulforhodamine B assay; details: read-out: Activity

COc1cc(-c2nn(-c3cccc(NC(=O)c4ccc(N5CCOCC5)c(C(F)(F)F)c4)c3)cc2-c2ccncc2)ccc1Cl
growth at 0.1 µM [1]: 60% | growth at 0.1 µM [2]: 92% | growth at 0.1 µM [3]: 51% | growth at 100 µM [4]: -53% | growth at 100 µM [5]: -24% | growth at 100 µM [6]: -28% | growth at 100 µM [7]: -12% | growth at 100 µM [8]: -43% | growth at 0.01 µM [9]: 95% | growth at 0.01 µM [10]: 111% | growth at 0.01 µM [11]: 95% | growth at 0.01 µM [12]: 111% | growth at 0.01 µM [13]: 99% | growth at 100 µM [14]: -1% | growth at 10 µM [15]: -64% | growth at 10 µM [16]: 1% | growth at 10 µM [17]: -36% | growth at 10 µM [18]: -4% | growth at 10 µM [19]: -8% | growth at 1 µM [20]: 58% | growth at 1 µM [21]: 35% | growth at 1 µM [22]: 4% | growth at 1 µM [23]: 28% | growth at 1 µM [24]: 27% | growth at 1 µM [25]: -5% | growth at 1 µM [26]: 24% | growth at 0.1 µM [27]: 93% | growth at 0.1 µM [28]: 76%

O=C(Nc1cccc(-n2cc(-c3ccncc3)c(-c3ccc(Cl)c(O)c3)n2)c1)Nc1cccc(C(F)(F)F)c1
growth at 0.3 µM [29]: 96% | growth at 0.03 µM [30]: 100% | growth at 0.003 µM [31]: 93% | growth at 0.003 µM [32]: 96% | growth at 3 µM [33]: 26% | growth at 0.003 µM [34]: 103% | growth at 0.003 µM [35]: 98% | growth at 3 µM [36]: 24% | growth at 0.3 µM [37]: 89%

COc1cc(-c2nn(-c3cccc(NC(=O)Nc4ccc(Cl)c(C(F)(F)F)c4)c3)cc2-c2ccncc2)ccc1Cl
growth at 0.3 µM [29]: 91% | growth at 0.03 µM [30]: 94% | growth at 0.003 µM [31]: 90% | growth at 0.003 µM [32]: 105% | growth at 3 µM [33]: 5% | growth at 0.003 µM [34]: 99% | growth at 0.003 µM [35]: 99% | growth at 3 µM [36]: 11% | growth at 0.3 µM [37]: 89%

O=C(Nc1cccc(-n2cc(-c3ccncc3)c(-c3ccc(Cl)c(O)c3)n2)c1)Nc1ccc(Cl)c(C(F)(F)F)c1
growth at 0.3 µM [29]: 86% | growth at 0.03 µM [30]: 94% | growth at 0.003 µM [31]: 91% | growth at 0.003 µM [32]: 109% | growth at 3 µM [33]: 2% | growth at 0.003 µM [34]: 103% | growth at 0.003 µM [35]: 88% | growth at 3 µM [36]: 7% | growth at 0.3 µM [37]: 76%

COc1cc(-c2nn(-c3cccc(NC(=O)c4ccc(Cl)c(C(F)(F)F)c4)c3)cc2-c2ccncc2)ccc1Cl
growth at 0.3 µM [29]: 87% | growth at 0.03 µM [30]: 98% | growth at 0.003 µM [31]: 93% | growth at 0.003 µM [32]: 104% | growth at 3 µM [33]: 42% | growth at 0.003 µM [34]: 99% | growth at 0.003 µM [35]: 92% | growth at 3 µM [36]: 44% | growth at 0.3 µM [37]: 82%

COc1cc(-c2nn(-c3cccc(NC(=O)c4ccccc4)c3)cc2-c2ccncc2)ccc1Cl
growth at 0.1 µM [1]: 90% | growth at 0.1 µM [2]: 100% | growth at 0.1 µM [3]: 85% | growth at 100 µM [4]: -27% | growth at 100 µM [5]: -7% | growth at 100 µM [6]: 19% | growth at 100 µM [7]: 6% | growth at 100 µM [8]: 4% | growth at 0.01 µM [9]: 95% | growth at 0.01 µM [10]: 105% | growth at 0.01 µM [11]: 93% | growth at 0.01 µM [12]: 93% | growth at 0.01 µM [13]: 97% | growth at 100 µM [14]: 34% | growth at 10 µM [15]: -15% | growth at 10 µM [16]: 13% | growth at 10 µM [17]: 2% | growth at 10 µM [18]: 25% | growth at 10 µM [19]: 11% | growth at 1 µM [20]: 80% | growth at 1 µM [21]: 37% | growth at 1 µM [22]: 15% | growth at 1 µM [23]: 36% | growth at 1 µM [24]: 40% | growth at 1 µM [25]: 15% | growth at 1 µM [26]: 27% | growth at 0.1 µM [27]: 92% | growth at 0.1 µM [28]: 101%

O=C(Nc1cccc(-n2cc(-c3ccncc3)c(-c3ccc(Cl)c(O)c3)n2)c1)Nc1ccc(Cl)c(Cl)c1
growth at 0.3 µM [29]: 91% | growth at 0.03 µM [30]: 100% | growth at 0.003 µM [31]: 89% | growth at 0.003 µM [32]: 96% | growth at 3 µM [33]: 8% | growth at 0.003 µM [34]: 102% | growth at 0.003 µM [35]: 98% | growth at 3 µM [36]: 14% | growth at 0.3 µM [37]: 82%
